# US20160243149A1, “NOVEL ANTI-VIRAL THERAPEUTIC” (priority 2012, published 2016)
# Target: T1, VPg unlinkase (Homo sapiens, UniProt O95551)
# T1 construct: To generate the HeLa cell homogenate used for the isolation of VPg unlinkase, 5 ml of packed HeLa cells were homogenized; endogenous in cells; host or cells: HeLa cells (uninfected); enzyme fractionated from total cell homogenate
# T1 sequence (O95551 1-362): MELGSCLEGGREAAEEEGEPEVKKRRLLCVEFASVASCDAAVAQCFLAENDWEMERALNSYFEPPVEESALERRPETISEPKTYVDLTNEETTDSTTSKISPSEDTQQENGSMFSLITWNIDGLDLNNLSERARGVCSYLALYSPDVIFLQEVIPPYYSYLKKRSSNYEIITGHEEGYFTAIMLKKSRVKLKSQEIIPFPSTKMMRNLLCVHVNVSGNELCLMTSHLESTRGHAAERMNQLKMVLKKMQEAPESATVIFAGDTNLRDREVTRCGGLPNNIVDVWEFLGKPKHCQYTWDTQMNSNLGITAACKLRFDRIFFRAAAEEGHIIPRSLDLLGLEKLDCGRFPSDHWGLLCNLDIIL
# Format: biochemical
structure (smiles),measurement,value
Cl.Nc1ncnc2c1ncn2[C@@H]1O[C@H](COC(=O)c2ccc(S(=O)(=O)F)cc2)[C@@H](O)[C@H]1O [5′FSBA],suppression of unlinkase activity,effectively suppressed unlinkase activity
